The source made the active and inactive calls. The calls are words filed in the database; no cut-off is given here.
Legend:
SW-620 [1] = assay: Induction of apoptosis in human SW620 cells assessed as increase in cleaved PARP expression incubated for 24 hrs by Western blotting analysis; format: functional, cell-based; details: dose 5-10 µM
SW-620 [2] = assay: Antiproliferative activity against human SW620 cells assessed as inhibition of cell proliferation at 1.5 to 12.5 uM by CCK-8 assay; format: functional, cell-based; details: dose 1.5-12.5 µM, time 24-48 hrs
[3] = target: 5-hydroxytryptamine receptor 2A (Homo sapiens, UniProt P28223); assay: Antagonist activity at 5HTR2A (unknown origin) assessed as inhibition of 5-HTR2A
HCT-116 [4] = assay: Antitumor activity against human HCT-116 cells expressing firefly luciferase xenografted in male athymic nude BALB/c mouse assessed as tumor growth inhibition at 50 mg/kg, ip administered once daily by bioluminescence imaging analysis relative to control; format: functional; details: read-out: TGI
CYP2C9 = CYP2C9 (Homo sapiens, UniProt P11712); assay: Inhibition of CYP2C9 (unknown origin) at 10 uM relative to control; format: ADME
[5] = Drug concentration in male ICR mouse brain at 10 mg/kg, ip measured after 1 hr; format: ADME, organism-based; details: read-out: Ct
SW-620 [6] = assay: Induction of apoptosis in human SW620 cells assessed as upregulation of acetylated P53 protein expression at 5 to 10 uM incubated for 24 hrs by Western blotting analysis; format: functional, cell-based; details: dose 5-10 µM
SW480 [7] = assay: Antiproliferative activity against human SW480 cells assessed as inhibition of cell proliferation at 1.5 to 12.5 uM by CCK-8 assay; format: functional, cell-based; details: dose 1.5-12.5 µM, time 24-48 hrs
SW-620 [8] = assay: Antiproliferative activity against human SW620 cells assessed as inhibition of cell proliferation incubated for 24 to 48 hrs by CCK-8 assay; format: functional, cell-based; details: dose 1.5-12.5 µM, time 24-48 hrs
SW480 [9] = assay: Antiproliferative activity against human SW480 cells assessed as inhibition of cell proliferation incubated for 24 to 48 hrs by CCK-8 assay; format: functional, cell-based; details: dose 1.5-12.5 µM, time 24-48 hrs
[10] = Drug concentration in male ICR mouse plasma at 10 mg/kg, ip measured after 3 hr; format: ADME, organism-based
SW-620 [11] = assay: Induction of apoptosis in human SW620 cells assessed as upregulation of total P53 protein expression at 5 to 10 uM incubated for 24 hrs by Western blotting analysis; format: functional, cell-based; details: dose 5-10 µM
[12] = target: 5-hydroxytryptamine receptor 6 (Homo sapiens) (UniProt P50406); assay: Inhibition of 5HTR6 (unknown origin) at 1 uM relative to control
HCT-116 [13] = assay: Antitumor activity against human HCT-116 cells xenografted in male athymic nude BALB/c mouse assessed as tumor growth inhibition at 1 mg/kg, ip measured after 19 days relative to control; format: functional; details: HCT-116, 456 h, time 19 day, read-out: TGI
HCT-116 [14] = assay: Antitumor activity against human HCT-116 cells xenografted in male athymic nude BALB/c mouse assessed as increase in cleaved caspase 3 expression at 10 mg/kg, ip measured after 19 days by Immunohistochemical analysis; format: functional, organism-based; details: time 19.0 day
HCT-116 [15] = assay: Induction of apoptosis in human HCT-116 cells assessed as increase in cleaved PARP expression incubated for 24 hrs by Western blotting analysis; format: functional, cell-based; details: dose 5-10 µM
[16] = Toxicity in male athymic nude BALB/c mouse xenografted with human HCT-116 cells assessed as change in body weight at 1 to 10 mg/kg, ip administered once daily and measured after 19 days; format: organism-based; details: in vivo, 456 h, dose 1-10 mg/kg, time 19 day
CYP2D6 = CYP2D6 (Homo sapiens, UniProt P10635); assay: Inhibition of CYP2D6 (unknown origin) at 10 uM relative to control; format: ADME
SW-620 [17] = assay: Antitumor activity against human SW620 cells xenografted in male athymic nude BALB/c mouse assessed as tumor growth inhibition administered intraperitoneally once daily relative to control; format: functional; details: dose 10-50 mg/kg, route ip
HCT-116 [18] = assay: Antitumor activity against human HCT-116 cells expressing firefly luciferase xenografted in male athymic nude BALB/c mouse assessed as decrease in bioluminescent signals at 50 mg/kg, ip administered once daily by bioluminescence imaging analysis; format: functional, organism-based
CCD-18Co = assay: Cytotoxicity against human CCD-18Co cells assessed as inhibition of cell proliferation at 1.5 to 12.5 uM by CCK-8 assay; format: toxicity, cell-based; details: dose lower 1.5 µM, time lower 24 hrs, dose upper 12.5 µM, time upper 48 hrs
SW-620 [19] = assay: Antitumor activity against human SW620 cells xenografted in male athymic nude BALB/c mouse assessed as tumor growth inhibition at 10 mg/kg, ip administered once daily relative to control; format: functional; details: read-out: TGI
[20] = target: 5-hydroxytryptamine receptor 7 (Homo sapiens) (UniProt P34969); assay: Inhibition of 5HTR7 (unknown origin) at 1 uM relative to control
[21] = AUCinfinity in male mouse at 2 mg/kg, iv; format: ADME, organism-based; details: in vivo
SW-620 [22] = assay: Induction of apoptosis in human SW620 cells assessed as increase in apoptotic cells at 5 to 10 uM incubated for 24 hrs by Annexin V/propidium iodide staining based FACS assay; format: functional, cell-based; details: dose 5-10 µM
HCT-116 [23] = assay: Antiproliferative activity against human HCT-116 cells assessed as inhibition of cell proliferation incubated for 24 to 48 hrs by CCK-8 assay; format: functional, cell-based; details: dose 1.5-12.5 µM, time 24-48 hrs
HCT-116 [24] = assay: Induction of apoptosis in human HCT-116 cells assessed as increase in apoptotic cells at 5 to 10 uM incubated for 24 hrs by Annexin V/propidium iodide staining based FACS assay; format: functional, cell-based; details: dose 5-10 µM
RKO = assay: Antiproliferative activity against human RKO cells assessed as inhibition of cell proliferation at 1.5 to 12.5 uM by CCK-8 assay; format: functional, cell-based; details: dose 1.5-12.5 µM, time 24-48 hrs
[25] = target: 5-hydroxytryptamine receptor 5A (Homo sapiens) (UniProt P47898); assay: Inhibition of 5HTR5A (unknown origin) at 1 uM relative to control
5-hydroxytryptamine receptor 5A (Homo sapiens), sequence (P47898 whole entry): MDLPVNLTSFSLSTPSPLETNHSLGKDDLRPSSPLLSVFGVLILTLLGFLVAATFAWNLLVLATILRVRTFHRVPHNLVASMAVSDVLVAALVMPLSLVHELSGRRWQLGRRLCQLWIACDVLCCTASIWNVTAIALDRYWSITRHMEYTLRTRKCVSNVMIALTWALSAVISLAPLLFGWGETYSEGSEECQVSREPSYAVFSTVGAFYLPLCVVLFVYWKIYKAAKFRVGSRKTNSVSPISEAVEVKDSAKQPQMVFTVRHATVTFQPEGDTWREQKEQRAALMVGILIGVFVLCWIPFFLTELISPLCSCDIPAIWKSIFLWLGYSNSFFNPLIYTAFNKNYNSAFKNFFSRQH

CYP2C9, sequence (P11712 whole entry): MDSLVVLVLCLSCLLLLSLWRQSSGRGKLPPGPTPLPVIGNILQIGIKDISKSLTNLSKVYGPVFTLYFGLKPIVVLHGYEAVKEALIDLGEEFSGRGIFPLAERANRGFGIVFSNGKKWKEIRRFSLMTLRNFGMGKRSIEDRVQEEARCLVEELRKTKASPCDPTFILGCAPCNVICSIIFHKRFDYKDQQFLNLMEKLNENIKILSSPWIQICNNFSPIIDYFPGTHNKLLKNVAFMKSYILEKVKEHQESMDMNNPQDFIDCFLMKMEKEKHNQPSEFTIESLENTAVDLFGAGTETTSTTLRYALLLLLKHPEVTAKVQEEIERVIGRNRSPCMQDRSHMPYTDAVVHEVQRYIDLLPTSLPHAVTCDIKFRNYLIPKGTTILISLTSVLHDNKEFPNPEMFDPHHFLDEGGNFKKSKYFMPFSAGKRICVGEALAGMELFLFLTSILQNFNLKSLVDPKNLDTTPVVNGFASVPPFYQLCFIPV
5-hydroxytryptamine receptor 7 (Homo sapiens), sequence (P34969 whole entry): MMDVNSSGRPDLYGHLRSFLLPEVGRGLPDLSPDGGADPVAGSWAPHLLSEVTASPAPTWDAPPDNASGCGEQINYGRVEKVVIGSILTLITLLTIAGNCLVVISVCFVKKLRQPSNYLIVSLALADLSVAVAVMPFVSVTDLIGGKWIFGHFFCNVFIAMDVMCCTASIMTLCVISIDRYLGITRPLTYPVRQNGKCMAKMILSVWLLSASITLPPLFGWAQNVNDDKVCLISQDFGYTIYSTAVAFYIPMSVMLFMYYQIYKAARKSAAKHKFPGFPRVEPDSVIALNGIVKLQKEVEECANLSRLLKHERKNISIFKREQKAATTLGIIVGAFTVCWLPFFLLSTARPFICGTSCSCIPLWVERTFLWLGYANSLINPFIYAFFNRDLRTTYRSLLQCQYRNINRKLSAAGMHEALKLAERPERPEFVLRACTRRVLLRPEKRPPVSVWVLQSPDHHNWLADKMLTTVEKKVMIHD
5-hydroxytryptamine receptor 2A, sequence (P28223 whole entry): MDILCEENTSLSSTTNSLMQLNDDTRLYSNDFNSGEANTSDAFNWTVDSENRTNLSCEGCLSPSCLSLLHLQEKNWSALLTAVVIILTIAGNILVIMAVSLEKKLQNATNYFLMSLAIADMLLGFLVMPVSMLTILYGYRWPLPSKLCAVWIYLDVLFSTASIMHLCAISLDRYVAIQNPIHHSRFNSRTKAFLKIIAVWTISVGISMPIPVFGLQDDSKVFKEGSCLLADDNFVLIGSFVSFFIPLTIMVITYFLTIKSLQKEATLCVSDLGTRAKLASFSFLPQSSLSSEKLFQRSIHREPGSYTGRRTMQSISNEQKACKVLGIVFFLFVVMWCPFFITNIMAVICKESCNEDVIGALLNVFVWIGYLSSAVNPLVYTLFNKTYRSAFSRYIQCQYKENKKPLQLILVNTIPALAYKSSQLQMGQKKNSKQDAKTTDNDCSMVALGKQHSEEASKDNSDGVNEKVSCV
5-hydroxytryptamine receptor 6 (Homo sapiens), sequence (P50406 whole entry): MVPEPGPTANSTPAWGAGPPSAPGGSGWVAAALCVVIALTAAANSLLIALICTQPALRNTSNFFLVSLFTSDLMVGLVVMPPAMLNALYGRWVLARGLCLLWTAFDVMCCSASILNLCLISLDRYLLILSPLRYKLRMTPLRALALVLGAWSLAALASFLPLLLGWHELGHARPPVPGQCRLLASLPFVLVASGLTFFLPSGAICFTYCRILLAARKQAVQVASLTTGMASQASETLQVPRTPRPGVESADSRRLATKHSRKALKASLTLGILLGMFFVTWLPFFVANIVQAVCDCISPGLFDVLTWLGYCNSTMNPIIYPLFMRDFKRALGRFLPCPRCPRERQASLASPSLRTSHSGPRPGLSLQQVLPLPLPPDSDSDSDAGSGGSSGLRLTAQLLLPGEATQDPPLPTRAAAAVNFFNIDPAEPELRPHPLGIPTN
CYP2D6, sequence (P10635 whole entry): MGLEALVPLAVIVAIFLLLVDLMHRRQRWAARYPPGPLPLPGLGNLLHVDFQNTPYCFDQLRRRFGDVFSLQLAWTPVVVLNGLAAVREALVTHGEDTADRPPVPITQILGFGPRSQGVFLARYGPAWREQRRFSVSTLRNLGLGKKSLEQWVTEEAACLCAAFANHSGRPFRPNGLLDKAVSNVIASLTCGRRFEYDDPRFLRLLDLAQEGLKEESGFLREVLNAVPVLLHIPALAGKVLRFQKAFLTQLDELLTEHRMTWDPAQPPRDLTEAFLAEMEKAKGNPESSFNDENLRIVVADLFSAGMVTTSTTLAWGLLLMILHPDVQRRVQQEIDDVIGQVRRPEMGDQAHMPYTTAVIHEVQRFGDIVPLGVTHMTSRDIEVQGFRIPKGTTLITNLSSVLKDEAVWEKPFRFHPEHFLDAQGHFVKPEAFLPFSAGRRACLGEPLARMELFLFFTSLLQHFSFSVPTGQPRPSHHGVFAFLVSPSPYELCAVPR

IC50 [3]: 42.8 nM | inhibition at 10 µM (CYP2C9): 5% | concentration at 1 h [5]: < 0.5 ng/g | concentration at 3 h [10]: 271 ng/mL | inhibition [12]: -5% | inhibition at 10 µM (CYP2D6): 55.1% | inhibition [20]: 102% | AUC(0-inf) [21]: 500 ng·h/mL | inhibition [25]: 10%
SMILES: Cl.Cl.O=C(NCc1ccc(OCC(O)CN2CCN(c3noc4cc(F)ccc34)CC2)cc1)N(Cc1ccc(F)cc1)C1CCNCC1 (centres undefined)
Activity (SW-620 [1]): Dose-dependent-effect | Activity (SW-620 [2]): Time-dependent-effect | inhibition in vivo at 50 mg/kg (HCT-116 [4]): 76.5% | Activity (SW-620 [6]): Active | Activity (SW480 [7]): Time-dependent-effect | Activity (SW-620 [8]): Dose-dependent-effect | Activity (SW480 [9]): Dose-dependent-effect | Activity (SW-620 [11]): Active | inhibition in vivo at 1 mg/kg (HCT-116 [13]): 38.8% | Activity (HCT-116 [14]): Active | Activity (HCT-116 [15]): Dose-dependent-effect | Activity [16]: Non-toxic | Activity (SW-620 [17]): Dose-dependent-effect | Activity (HCT-116 [18]): Active | Activity (CCD-18Co): Time-dependent-effect | inhibition in vivo at 10 mg/kg (SW-620 [19]): 30.8% | Activity (SW-620 [22]): Active | Activity (HCT-116 [23]): Dose-dependent-effect | Activity (HCT-116 [24]): Active | Activity (RKO): Time-dependent-effect
